Several values for one entry are separate records, joined by “and”; a condition that tells them apart may be missing. Identical values can stand only once. Marks after values point to notes of the source that are not given here.
What was measured:
patients [1] = assay: placebo-controlled Phase III studies of iloperidone, QTcF change; format: in vivo, human; settings: for mean change in the QTcF: most recent study
Method: Iloperidone is a benzisoxazole-piperidinyl derivative, currently in development for the treatment of CNS disorders. […] At lower doses of iloperidone (4 mg-16 mg) QTcF prolongation was minimal (0.1-5 msec). In the most recent study, a greater prolongation was observed when higher doses of iloperidone (20-24 mg/day) were studied. The mean change in the QTcF at doses 20-24 mg/day was 8.5 msec, and 4.6 msec in the 12-16 mg/day dose range in this study.

patients [2] = assay: Example 1: QTc change from baseline after iloperidone by CYP2D6 genotype or metabolite ratio; format: in vivo, human; settings: for QTc change at Period 2: after CYP2D6 inhibitor
Excerpt: The research leading to the present invention was designed to examine the effect of different doses of iloperidone relative to the effect of ziprasidone and quetiapine on QTc duration under carefully controlled conditions. To further evaluate the possible relationship between exposure to iloperidone and the comparators to QTc duration, reassessment after pharmacological inhibition of the principle metabolic pathways for each drug, under steady-state conditions, was also planned.
The addition of metabolic inhibitors in this study therefore allowed for an evaluation of the effect of increasing blood-concentration of iloperidone and/or its metabolites on QT duration. More specifically, this study allowed for an evaluation of the effect of iloperidone on QTc before and after the addition of the CYP2D6 inhibitor, paroxetine, as well as before and after the addition of the CYP3A4 inhibitor, ketoconazole.
The 128 individuals that participated were a good representation of the total sample of 165 individuals that participated in the trial. 22 of 29 total were from the iloperidone 8 mg bid group, 30 of 34 were from the iloperidone 12 mg bid group, 22 of 31 from the 24 mg qd group, 3 of 5 of the risperidone group, 28 of 33 of the ziprazidone group, and 23 of 33 of the quetiapine group.
In order to understand whether the difference in concentration of P88 at Period 1 Tmax was relevant to the increases in QTc after the addition of the inhibitors, the observed mean of P88 for the CYP2D6G1846A AG group was used to divide all individuals into two classes. The first includes individuals with P88 concentrations at Period 3, after the addition of both inhibitors, of equal to or less than 34 ng/mL and the second class includes individuals with P88 concentration greater than 34 ng/mL. The two classes were then compared in regards to the QTc change from baseline at Period 3. Using an ANOVA statistic for the first class […] (n=55) the QTc mean change from baseline in Period 3 was 22.7 msec and that for P88≦34 (n=12) the mean QTc for the same period was 7.7 msec.
While the results for some groups are not statistically significant, they do indicate a trend supporting the hypothesis that QTc prolongation is correlated to P88/P95 ratio. Similar results were obtained when cutoff ratios of 3.0 and 4.0 were analyzed, providing further support to the hypothesis that the extent of QTc prolongation a patient may experience after treatment can be predicted by measuring P88 and P95 blood levels.
Similar results were observed when considering QTc correlation to the (iloperidone+P88)/P95 ratio. […] While the results for some groups are not statistically significant, they do indicate a trend supporting the hypothesis that QTc prolongation is correlated to (iloperidone+P88)/P95 ratio. Indeed, when cutoff ratios of 3 and higher were analyzed, similar results were obtained providing further support to the hypothesis that the extent of QTc prolongation a patient may experience after treatment can be predicted by measuring iloperidone, P88 and P95 blood levels.

patients [3] = assay: Example 2: QTcF change from baseline in iloperidone-treated patients; format: in vivo, human
Excerpt: From the 300 iloperidone-treated patients initially genotyped for the CYP2D6*4 and * 10 variants (VP-VYV-683-3101), 222 remaining DNA samples were used for this extended pharmacogenomic analysis. One patient was excluded from the analysis due to inconsistent results for the CYP2D6 allele *4 generated by Quest Diagnostics Central Laboratory (Collegeville, Pa.) and Cogenics (Morrisville, N.C.). Pharmacokinetic data of the (iloperidone+P88)/P95 ratio was available for 168 of these patients. QT measurement at Day 14 and 28 was available for 169 and 146 patients respectively.
Analyses were performed on observed case data using an ANCOVA model with the baseline value as a covariate for the change from baseline in QTc (Fridericia formula) and using an ANOVA model for iloperidone blood exposure at Day 14 and Day 28. Linkage disequilibrium analysis was performed using Haploview v4.0 (Barrett et al, 2005).

[4] = in vivo
[5] = in vivo; remark: listed apart in the source

increase of the area under the curve (AUC) [4]: 131%
increase in the concentrations [5]: 38-58%
Structure (SMILES): COc1cc(C(C)=O)ccc1OCCCN1CCC(c2noc3cc(F)ccc23)CC1 [iloperidone, 1-[4-[3-[4-(6-fluoro-1,2-benzisoxazol-3-yl)-1-piperidinyl]propoxy]-3-methoxyphenyl]ethanone]
mean change in the QTcF (patients [1]; 12-16 mg/day dose range): 4.6 ms
mean change in the QTcF (patients [1]; 20-24 mg/day): 8.5 ms
QTcF prolongation (patients [1]; lower doses 4 mg-16 mg): 0.1 to 5 ms
LSMean QTc change from Baseline 8 mg bid (patients [2]; (ILO + P88)/P95 ratio <3): 7.2 (n = 23)
LSMean QTc change from Baseline 12 mg bid (patients [2]; (ILO + P88)/P95 ratio <3): 8.7 (n = 31)
LSMean QTc change from Baseline 8 + 12 mg bid (patients [2]; (ILO + P88)/P95 ratio <3): 8.3 (n = 54)
LSMean QTc change from Baseline 24 qd (patients [2]; (ILO + P88)/P95 ratio <3): 14.4 (n = 24)
LSMean QTc change from Baseline All Treatment Groups (patients [2]; (ILO + P88)/P95 ratio <3): 10.424 (n = 78)
LSMean QTc change from Baseline 8 mg bid (patients [2]; (ILO + P88)/P95 ratio >3): 21.3 (n = 5)
LSMean QTc change from Baseline 12 mg bid (patients [2]; (ILO + P88)/P95 ratio >3): 15.2 (n = 3)
LSMean QTc change from Baseline 8 + 12 mg bid (patients [2]; (ILO + P88)/P95 ratio >3): 17.3 (n = 8)
LSMean QTc change from Baseline 24 qd (patients [2]; (ILO + P88)/P95 ratio >3): 30.5 (n = 5)
LSMean QTc change from Baseline All Treatment Groups (patients [2]; (ILO + P88)/P95 ratio >3): 20.031 (n = 13)
QTc change at Period 1 (patients [2]; CYP2D6C100T CC, 8 mg bid): 7.8 (17)
QTc change at Period 2 (patients [2]; CYP2D6C100T CC, 8 mg bid): 11.7 (16)
QTc change at Period 1 (patients [2]; CYP2D6C100T CC, 12 mg bid): 11.8 (23)
QTc change at Period 2 (patients [2]; CYP2D6C100T CC, 12 mg bid): 14.5 (21)
QTc change at Period 1 (patients [2]; CYP2D6C100T CC, 24 mg qd): 9.5 (14)
QTc change at Period 2 (patients [2]; CYP2D6C100T CC, 24 mg qd): 16.4 (15)
QTc change at Period 1 (patients [2]; CYP2D6C100T CT, 8 mg bid): 2.9 (2)
QTc change at Period 2 (patients [2]; CYP2D6C100T CT, 8 mg bid): 12.5 (2)
QTc change at Period 1 (patients [2]; CYP2D6C100T CT, 12 mg bid): 5.8 (6)
QTc change at Period 2 (patients [2]; CYP2D6C100T CT, 12 mg bid): 8.7 (6)
QTc change at Period 1 (patients [2]; CYP2D6C100T CT, 24 mg qd): 19.0 (5)
QTc change at Period 2 (patients [2]; CYP2D6C100T CT, 24 mg qd): 20.6 (5)
QTc change at Period 1 (patients [2]; CYP2D6C100T TT, 8 mg bid): −8.4 (1)
QTc change at Period 2 (patients [2]; CYP2D6C100T TT, 8 mg bid): −0.7 (1)
QTc change at Period 1 (patients [2]; CYP2D6C100T TT, 12 mg bid): 17.7 (1)
QTc change at Period 2 (patients [2]; CYP2D6C100T TT, 12 mg bid): 25.0 (1)
QTc change at Period 1 (patients [2]; CYP2D6C100T TT, 24 mg qd): 38.4 (1)
QTc change at Period 2 (patients [2]; CYP2D6C100T TT, 24 mg qd): 28.4 (1)
QTc change at Period 1 (patients [2]; CYP2D6G1846A AA, 12 mg bid): 17.7 (1)^a
QTc change at Period 2 (patients [2]; CYP2D6G1846A AA, 12 mg bid): 25.0 (1)
QTc change at Period 1 (patients [2]; CYP2D6G1846A AA, 24 mg qd): 38.4 (1)
QTc change at Period 2 (patients [2]; CYP2D6G1846A AA, 24 mg qd): 28.4 (1)
QTc change at Period 1 (patients [2]; CYP2D6G1846A AG, 8 mg bid): −0.8 (3)
QTc change at Period 2 (patients [2]; CYP2D6G1846A AG, 8 mg bid): 8.1 (3)
QTc change at Period 1 (patients [2]; CYP2D6G1846A AG, 12 mg bid): 5.8 (6)
QTc change at Period 2 (patients [2]; CYP2D6G1846A AG, 12 mg bid): 8.7 (6)
QTc change at Period 1 (patients [2]; CYP2D6G1846A AG, 24 mg qd): 19.0 (5)
QTc change at Period 2 (patients [2]; CYP2D6G1846A AG, 24 mg qd): 20.6 (5)
QTc change at Period 1 (patients [2]; CYP2D6G1846A GG, 8 mg bid): 7.8 (17)
QTc change at Period 2 (patients [2]; CYP2D6G1846A GG, 8 mg bid): 11.7 (18)
QTc change at Period 1 (patients [2]; CYP2D6G1846A GG, 12 mg bid): 11.8 (23)
QTc change at Period 2 (patients [2]; CYP2D6G1846A GG, 12 mg bid): 14.5 (21)
QTc change at Period 1 (patients [2]; CYP2D6G1846A GG, 24 mg qd): 14.0 (14)
QTc change at Period 2 (patients [2]; CYP2D6G1846A GG, 24 mg qd): 16.4 (15)
LSMean QTc change from Baseline 8 mg bid (patients [2]; P88/P95 ratio <2): 7.2 (n = 23)
LSMean QTc change from Baseline 12 mg bid (patients [2]; P88/P95 ratio <2): 8.7 (n = 31)
LSMean QTc change from Baseline 8 + 12 mg bid (patients [2]; P88/P95 ratio <2): 8.3 (n = 54)
LSMean QTc change from Baseline 24 qd (patients [2]; P88/P95 ratio <2): 13.9 (n = 24)
LSMean QTc change from Baseline All Treatment Groups (patients [2]; P88/P95 ratio <2): 10.244 (n = 78)
LSMean QTc change from Baseline 8 mg bid (patients [2]; P88/P95 ratio >2): 21.3 (n = 5)
LSMean QTc change from Baseline 12 mg bid (patients [2]; P88/P95 ratio >2): 17.4 (n = 3)
LSMean QTc change from Baseline 8 + 12 mg bid (patients [2]; P88/P95 ratio >2): 18.3 (n = 8)
LSMean QTc change from Baseline 24 qd (patients [2]; P88/P95 ratio >2): 29.4 (n = 5)
LSMean QTc change from Baseline All Treatment Groups (patients [2]; P88/P95 ratio >2): 21.111 (n = 13)
QTc mean change from baseline in Period 3 (patients [2]; individuals with P88>34 ng/mL at Period 3, after addition of both inhibitors): 22.7 ms
QTc mean change from baseline in Period 3 (patients [2]; individuals with P88≦34 ng/mL at Period 3, after addition of both inhibitors): 7.7 ms
QTcF change, LS Squares Mean QTcF change from baseline (patients [3]; Day 14, 1 or 2 non-functional CYP2D6 alleles): 16.3 msec and 16.3 (N = 59) msec
QTcF change, LS Squares Mean QTcF change from baseline (patients [3]; Day 14, 2 functional CYP2D6 alleles): 9.7 msec and 9.7 (N = 110) msec
QTcF change, LS Squares Mean QTcF change from baseline (patients [3]; Day 14, (iloperidone+P88)/P95 ratio >1): 16.0 msec and 16.0 (N = 99) msec
QTcF change, LS Squares Mean QTcF change from baseline (patients [3]; Day 14, (iloperidone+P88)/P95 ratio ≦1): 7.9 msec and 7.9 (N = 127) msec
QTcF change, LS Squares Mean QTcF change from baseline (patients [3]; Day 28, 1 or 2 non-functional CYP2D6 alleles): 11.4 msec and 11.4 (N = 56) msec
QTcF change, LS Squares Mean QTcF change from baseline (patients [3]; Day 28, 2 functional CYP2D6 alleles): 4.4 msec and 4.4 (N = 90) msec
QTcF change, LS Squares Mean QTcF change from baseline (patients [3]; Day 28, (iloperidone+P88)/P95 ratio >1): 10.1 msec and 10.1 (N = 79) msec
QTcF change, LS Squares Mean QTcF change from baseline (patients [3]; Day 28, (iloperidone+P88)/P95 ratio ≦1): 4.8 msec and 4.8 (N = 119) msec
